Key:
[1] = general statement on the conventional reagent; cited from earlier work
[2] = Accelerated stability in the quantification of UA (uric acid); assay type: physicochemical; conditions: stored at 40° C., day 7, 14, 21 and 28; low concentration region of UA (2.1 mg/dL); FIG. 14
Procedure: At day 7, 14, 21 and 28, the reagents (wrapped with aluminum foil) stored in a chamber at 40° C. were taken out and brought back to room temperature. Also, the samples were taken out of a freezing chamber and naturally thawed at room temperature. They were mixed on a vortex mixer and used for the measurement. The absorbance was measurement similarly to the measurement of the linearity.

[3] = Solution stability under photo irradiation (optical stability); assay type: physicochemical; conditions: 0.25 mM in 50 mM MES buffer (pH 6.5), under fluorescent lamp, temporal change in absorbance at 650 nm; FIG. 1
Procedure: Solution stability under photo irradiation was tested as follows. Each sample solution of Compound A, B, C and D according to the invention and DA-67 was prepared with 50 mM MES buffer (pH 6.5) in the concentration of 0.25 mM. Temporal change in the absorbance at 650 nm of each reagent prepared placed under fluorescent lamp was monitored.

For `CN(C)c1ccc2c(c1)Sc1cc(N(C)C)ccc1N2C(=O)NCC(=O)O` [DA-67, reference compound], the “solubility in water (stated drawback)” value [1] is given as “poor solubility in water”, the “order of accelerated stabilities” value [2] is given as “Compound A according to the invention>Compound D according to the invention≈DA-67>Compound B according to the invention>Compound C according to the invention” and the optical stability [3] is given as “DA-67 ≃Compound B according to the invention≈Compound C according to the invention<Compound A according to the invention<Compound D according to the invention”.

In the case of `CN(C)c1ccc2c(c1)Sc1cc(N(C)C)ccc1N2C(=O)NCCC(=O)O` [Compound B], the “order of accelerated stabilities” value [2] is reported as “Compound A according to the invention>Compound D according to the invention≈DA-67>Compound B according to the invention>Compound C according to the invention” and the optical stability [3] is reported as “DA-67 ≃Compound B according to the invention≈Compound C according to the invention<Compound A according to the invention<Compound D according to the invention”.

For `CN(C)c1ccc2c(c1)Sc1cc(N(C)C)ccc1N2C(=O)NCCS(=O)(=O)O` [Compound A], the “order of accelerated stabilities” value [2] was “Compound A according to the invention>Compound D according to the invention≈DA-67>Compound B according to the invention>Compound C according to the invention” and the optical stability [3] was “DA-67 ≃Compound B according to the invention≈Compound C according to the invention<Compound A according to the invention<Compound D according to the invention”.

With `CN(C)c1ccc2c(c1)Sc1cc(N(C)C)ccc1N2C(=O)NCC(=O)NCC(=O)O` [Compound D] the “order of accelerated stabilities” value [2] was “Compound A according to the invention>Compound D according to the invention≈DA-67>Compound B according to the invention>Compound C according to the invention” and the optical stability [3] was “DA-67 ≃Compound B according to the invention≈Compound C according to the invention<Compound A according to the invention<Compound D according to the invention”.

— patent US10787571B2, “Oxidation color developable compound and oxidation color development reagent” (DOJINDO LABORATORIES, priority 2017, dated 2020)
